In patent US20240150298A1, “ANTIBACTERIAL COMPOUNDS” (Blacksmith Medicines, Inc., priority 2021, published 2024):
In brackets after ≈: the same amount, converted by molar mass. Like-named read-outs stand apart in the source and are kept apart here.

How the values were obtained:
Assay in all cases: Bacterial susceptibility testing, MIC by broth microdilution (CLSI)
Assay type in all cases: cell-based
E. coli ATCC25922 = conditions: for MIC: Escherichia coli
Method: (§1) Minimal inhibitory concentrations (MIC) were determined by the broth microdilution method in accordance with the Clinical and Laboratory Standards Institute (CLSI) guidelines. In brief, organism suspensions were adjusted to a final inoculum between 3×10^5 and 7×10^5 colony-forming units (CFU)/mL. Drug dilutions and inocula were made in sterile, cation adjusted Mueller-Hinton Broth (Beckton Dickinson). In wells, an inoculum volume of 100 μL was mixed to 2 μL of DMSO with 2-fold serial dilutions of drug. All inoculated microdilution trays were incubated in ambient air at 35° C. for 18-24 h. Following incubation, the lowest concentration of the drug that prevented visible growth (OD600 nm<0.05) was recorded as the MIC. Performance of the assay was monitored by the use of laboratory quality-control strains and compounds with defined MIC spectrum, in accordance with CLSI guidelines.

K. pneumoniae ATCC13883 = conditions: for MIC: Klebsiella pneumoniae
Method: as §1

P. aeruginosa 209 PAO1 = conditions: Pseudomonas aeruginosa
Method: as §1

P. aeruginosa ATCC27835 = conditions: Pseudomonas aeruginosa
Method: as §1

[1] = ATCC25922, broth microdilution, 35° C., 18-24 h, read-out: MIC E. coli ATCC25922
[2] = ATCC13883, broth microdilution, 35° C., 18-24 h, read-out: MIC K. pneumoniae ATCC13883
[3] = PAO1, broth microdilution, 35° C., 18-24 h, read-out: MIC P. aeruginosa 209 PAO1
[4] = ATCC27835, broth microdilution, 35° C., 18-24 h, read-out: MIC P. aeruginosa ATCC27835
[5] = ATCC25922, read-out: MIC E. coli ATCC25922
[6] = ATCC13883, read-out: MIC K. pneumoniae ATCC13883
[7] = PAO1, read-out: MIC P. aeruginosa 209 PAO1
[8] = ATCC27835, read-out: MIC P. aeruginosa ATCC27835
[9] = broth microdilution, 35° C., 18-24 h

| SMILES | MIC (E. coli ATCC25922; [1]) [µg/mL] | MIC (K. pneumoniae ATCC13883; [2]) [µg/mL] | MIC (P. aeruginosa 209 PAO1; [3]) [µg/mL] | MIC (P. aeruginosa ATCC27835; [4]) [µg/mL] | MIC (E. coli ATCC25922; [5]) [µg/mL] | MIC (K. pneumoniae ATCC13883; [6]) [µg/mL] | MIC (P. aeruginosa 209 PAO1; [7]) [µg/mL] | MIC (P. aeruginosa ATCC27835; [8]) [µg/mL] | MIC E. coli ATCC25922 (E. coli ATCC25922; [9]) [µg/mL] | MIC K. pneumoniae ATCC13883 (K. pneumoniae ATCC13883; [9]) [µg/mL] |
| --- | --- | --- | --- | --- | --- | --- | --- | --- | --- | --- |
| C[C@H](O)c1nccn1[C@@H](/C=C/c1ccc(-c2ccc(C3CC(C(=O)NCc4ncon4)C3)cc2)cc1)CO (stereo partly drawn) [Compound 53, N-((1,2,4-oxadiazol-3-yl)methyl)-3-(4′-((S,E)-4-hydroxy-3-(2-((S)-1-hydroxyethyl)-1H-imidazol-1-yl)but-1-en-1-yl)-[1,1′-biphenyl]-4-yl)cyclobutane-1-carboxamide] | 0.5 (≈ 0.974 µM) | 1 (≈ 1.95 µM) | 2 (≈ 3.89 µM) | 4 (≈ 7.79 µM) |  |  |  |  |  |  |
| C[C@H](O)c1nccn1[C@@H](/C=C/c1ccc(-c2ccc(C3CC(CNC(C#N)CO)C3)cc2)cc1)CO (stereo partly drawn) [Compound 59, 3-hydroxy-2-(((3-(4′-((S,E)-4-hydroxy-3-(2-((S)-1-hydroxyethyl)-1H-imidazol-1-yl)but-1-en-1-yl)-[1,1′-biphenyl]-4-yl)cyclobutyl)methyl)amino)propane nitrile] | 2 (≈ 4.11 µM) | 4 (≈ 8.22 µM) | 2 (≈ 4.11 µM) | 4 (≈ 8.22 µM) |  |  |  |  |  |  |
| C[C@H](O)c1nccn1[C@@H](/C=C/c1ccc(-c2ccc(C3CC(C(=O)NCC#N)C3)cc2)cc1)CO (stereo partly drawn) [Compound 50, N-(cyanomethyl)-3-(4′-((S,E)-4-hydroxy-3-(2-((S)-1-hydroxyethyl)-1H-imidazol-1-yl)but-1-en-1-yl)-[1,1′-biphenyl]-4-yl)cyclobutane-1-carboxamide] | 0.5 (≈ 1.06 µM) | 1 (≈ 2.13 µM) | 2 (≈ 4.25 µM) | 2 (≈ 4.25 µM) |  |  |  |  |  |  |
| C[C@H](O)c1nccn1[C@@H](/C=C/c1ccc(-c2ccc([C@H]3C[C@H](NC(=O)CO)C3)cc2)cc1)CO [Compound 64, 2-hydroxy-N-((1S,3r)-3-(4′-((S,E)-4-hydroxy-3-(2-((S)-1-hydroxyethyl)-1H-imidazol-1-yl)but-1-en-1-yl)-[1,1′-biphenyl]-4-yl)cyclobutyl)acetamide] |  |  |  |  | 1 (≈ 2.17 µM) | 2 (≈ 4.33 µM) | 1 (≈ 2.17 µM) | 2 (≈ 4.33 µM) |  |  |
| C[C@H](O)c1nccn1[C@@H](/C=C/c1ccc(-c2ccc(OCC3(CO)COC3)cc2)cc1)CO [Compound 68, (S,E)-2-(2-((S)-1-hydroxyethyl)-1H-imidazol-1-yl)-4-(4′-((3-(hydroxymethyl)oxetan-3-yl)methoxy)-[1,1′-biphenyl]-4-yl)but-3-en-1-ol] | 1 (≈ 2.22 µM) | 2 (≈ 4.44 µM) | 4 (≈ 8.88 µM) | 4 (≈ 8.88 µM) |  |  |  |  |  |  |
| C[C@H](O)c1nccn1[C@@H](/C=C/c1ccc(-c2ccc([C@H]3C[C@H](NC(=O)CN(C)C)C3)cc2)cc1)CO [Compound 66, 2-(dimethylamino)-N-((1S,3r)-3-(4′-((S,E)-4-hydroxy-3-(2-((S)-1-hydroxyethyl)-1H-imidazol-1-yl)but-1-en-1-yl)-[1,1′-biphenyl]-4-yl)cyclobutyl)acetamide] |  |  |  |  | 4 (≈ 8.19 µM) | 8 (≈ 16.4 µM) | 4 (≈ 8.19 µM) | 4 (≈ 8.19 µM) |  |  |
| C[C@H](O)c1nccn1[C@@H](/C=C/c1ccc(-c2ccc(C3CC(CN4CC(S(C)(=O)=O)C4)C3)cc2)cc1)CO (stereo partly drawn) [Compound 58, (S,E)-2-(2-((S)-1-hydroxyethyl)-1H-imidazol-1-yl)-4-(4′-(3-((3-(methylsulfonyl)azetidin-1-yl)methyl)cyclobutyl)-[1,1′-biphenyl]-4-yl)but-3-en-1-ol] | 1 (≈ 1.87 µM) | 2 (≈ 3.73 µM) | 4 (≈ 7.47 µM) | 8 (≈ 14.9 µM) |  |  |  |  |  |  |
| C[C@H](O)c1nccn1[C@@H](/C=C/c1ccc(-c2ccc(C3CC(NCc4noc(C(N)=O)n4)C3)cc2)cc1)CO (stereo partly drawn) [Compound 47, 3-(((3-(4′-((S,E)-4-hydroxy-3-(2-((S)-1-hydroxyethyl)-1H-imidazol-1-yl)but-1-en-1-yl)-[1,1′-biphenyl]-4-yl)cyclobutyl)amino)methyl)-1,2,4-oxadiazole-5-carboxamide] | 0.5 (≈ 0.946 µM) | 1 (≈ 1.89 µM) | 4 (≈ 7.57 µM) | 4 (≈ 7.57 µM) |  |  |  |  |  |  |
| C[C@H](O)c1nccn1[C@@H](/C=C/c1ccc(-c2ccc(C3CC(CNCC#N)C3)cc2)cc1)CO (stereo partly drawn) [Compound 56, 2-(((3-(4′-((S,E)-4-hydroxy-3-(2-((S)-1-hydroxyethyl)-1H-imidazol-1-yl)but-1-en-1-yl)-[1,1′-biphenyl]-4-yl)cyclobutyl)methyl)amino) acetonitrile] | 0.25 (≈ 0.548 µM) | 0.5 (≈ 1.1 µM) | 2 (≈ 4.38 µM) | 4 (≈ 8.76 µM) |  |  |  |  |  |  |
| C[C@H](O)c1nccn1[C@@H](/C=C/c1ccc(-c2ccc(C3CC(C(=O)O)C3)cc2)cc1)CO (stereo partly drawn) [Compound 51, 3-(4′-((S,E)-4-hydroxy-3-(2-((S)-1-hydroxyethyl)-1H-imidazol-1-yl)but-1-en-1-yl)-[1,1′-biphenyl]-4-yl)cyclobutane-1-carboxylic acid] | 4 (≈ 9.25 µM) | 8 (≈ 18.5 µM) | 4 (≈ 9.25 µM) | 4 (≈ 9.25 µM) |  |  |  |  |  |  |
| C[C@H](O)c1nccn1[C@@H](/C=C/c1ccc(-c2ccc(C3CC(N)C3)cc2)cc1)CO (stereo partly drawn) [Compound 48, (S,E)-4-(4′-(3-aminocyclobutyl)-[1,1′-biphenyl]-4-yl)-2-(2-((S)-1-hydroxyethyl)-1H-imidazol-1-yl)but-3-en-1-ol] | 2 (≈ 4.96 µM) | 16 (≈ 39.7 µM) | 2 (≈ 4.96 µM) | 2 (≈ 4.96 µM) |  |  |  |  |  |  |
| C[C@H](O)c1nccn1[C@@H](/C=C/c1ccc(-c2ccc(C3CC(NCC(F)(F)CO)C3)cc2)cc1)CO (stereo partly drawn) [Compound 45, (S,E)-4-(4′-(3-((2,2-difluoro-3-hydroxypropyl)amino)cyclobutyl)-[1,1′-biphenyl]-4-yl)-2-(2-((S)-1-hydroxyethyl)-1H-imidazol-1-yl)but-3-en-1-ol] | 0.25 (≈ 0.502 µM) | 0.5 (≈ 1 µM) | 4 (≈ 8.04 µM) | 4 (≈ 8.04 µM) |  |  |  |  |  |  |
| C[C@H](O)c1nccn1[C@@H](/C=C/c1ccc(-c2ccc(OCC(N)CO)cc2)cc1)CO (mixture of isomers) [Compound 8, (2S,E)-4-(4′-(2-amino-3-hydroxypropoxy)-[1,1′-biphenyl]-4-yl)-2-(2-((S)-1-hydroxyethyl)-1H-imidazol-1-yl)but-3-en-1-ol] |  |  | 4 (≈ 9.44 µM) | 4 (≈ 9.44 µM) |  |  |  |  | 16 (≈ 37.8 µM) | 64 (≈ 151 µM) |
| C[C@H](O)c1nccn1[C@@H](/C=C/c1ccc(-c2ccc(C3CC(CNCc4noc(C(N)=O)n4)C3)cc2)cc1)CO (stereo partly drawn) [Compound 57, 3-((((3-(4′-((S,E)-4-hydroxy-3-(2-((S)-1-hydroxyethyl)-1H-imidazol-1-yl)but-1-en-1-yl)-[1,1′-biphenyl]-4-yl)cyclobutyl)methyl)amino)methyl)-1,2,4-oxadiazole-5-carboxamide] | 0.25 (≈ 0.461 µM) | 1 (≈ 1.84 µM) | 4 (≈ 7.37 µM) | 4 (≈ 7.37 µM) |  |  |  |  |  |  |
| C[C@H](O)c1nccn1[C@@H](/C=C/c1ccc(-c2ccc(C3CC3OC(CO)CO)cc2)cc1)CO (stereo partly drawn) [Compound 70, 2-(2-(4′-((S,E)-4-hydroxy-3-(2-((S)-1-hydroxyethyl)-1H-imidazol-1-yl)but-1-en-1-yl)-[1,1′-biphenyl]-4-yl)cyclopropoxy)propane-1,3-diol] | 2 (≈ 4.31 µM) | 8 (≈ 17.2 µM) | 4 (≈ 8.61 µM) | 4 (≈ 8.61 µM) |  |  |  |  |  |  |
| C[C@H](O)c1nccn1[C@@H](/C=C/c1ccc(-c2ccc(OCC(N)(CO)CO)cc2)cc1)CO [Compound 74, 2-amino-2-(((4′-((S,E)-4-hydroxy-3-(2-((S)-1-hydroxyethyl)-1H-imidazol-1-yl)but-1-en-1-yl)-[1,1′-biphenyl]-4-yl)oxy)methyl)propane-1,3-diol] | 8 (≈ 17.6 µM) | > 32 | 2 (≈ 4.41 µM) | 1 (≈ 2.2 µM) |  |  |  |  |  |  |
| C[C@H](O)c1nccn1[C@@H](/C=C/c1ccc(-c2ccc([C@H]3C[C@H](NS(C)(=O)=O)C3)cc2)cc1)CO [Compound 62, N-((1S,3r)-3-(4′-((S,E)-4-hydroxy-3-(2-((S)-1-hydroxyethyl)-1H-imidazol-1-yl)but-1-en-1-yl)-[1,1′-biphenyl]-4-yl)cyclobutyl)methanesulfonamide] |  |  |  |  | 1 (≈ 2.08 µM) | 0.5 (≈ 1.04 µM) | 1 (≈ 2.08 µM) | 2 (≈ 4.15 µM) |  |  |
